This is an account of results in patent US10604541B2, “Glucokinase activators and methods of using same” (BRISTOL-MYERS SQUIBB COMPANY, priority 2016, dated 2020).

One data set has as its target T1, Human Glucokinase (Homo sapiens, UniProt P35557).
T1 construct: Full-length human hepatic GK (untagged) was expressed; made in house; host or cells: E. coli BL21 STAR (DE3)pLysS
T1 sequence (P35557 1-466 isoform P35557-2): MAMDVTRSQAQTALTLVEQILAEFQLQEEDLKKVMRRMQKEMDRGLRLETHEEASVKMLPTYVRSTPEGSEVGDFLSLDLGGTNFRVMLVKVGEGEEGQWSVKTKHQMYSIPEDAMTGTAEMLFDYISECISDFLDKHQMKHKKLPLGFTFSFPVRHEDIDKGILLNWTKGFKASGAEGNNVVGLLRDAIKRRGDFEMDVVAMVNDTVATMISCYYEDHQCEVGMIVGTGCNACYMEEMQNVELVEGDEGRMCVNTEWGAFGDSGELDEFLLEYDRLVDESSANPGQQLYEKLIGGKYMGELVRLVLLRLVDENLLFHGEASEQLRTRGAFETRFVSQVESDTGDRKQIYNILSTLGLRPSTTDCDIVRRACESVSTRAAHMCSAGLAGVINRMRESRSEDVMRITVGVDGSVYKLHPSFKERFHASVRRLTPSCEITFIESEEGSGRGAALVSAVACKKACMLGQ
Nature of the data set: Glucokinase tandem enzymatic assay (human GK). In kind it is biochemical. On the procedure: Enzymatic activity of human glucokinase (GK) was measured by incubating GK, ATP, and glucose for discrete time periods followed by quenching with EDTA (ethylenediamine tetra-acetic acid). Relative amounts of product glucose-6-phosphate (G6P) were measured by then running a detection assay using G6P dehydrogenase and measuring the conversion of ThioNAD (thio-nicotinamide adenine dinucleotide) to ThioNADH (thio-dihydronicotinamide adenine dinucleotide) at a wavelength of 405 nm. This “uncoupled” enzymatic reaction is denoted as the GK “tandem” assay. Activation of GK by the compound can be assessed using this assay. The GK tandem assay protocol described below was followed using a range of activator compound concentrations from 0 to 100 μM at 5 and 12 mM of glucose. Human full-length glucokinase (GK, 15 nM) was incubated with 5 or 12 mM glucose in a 384 well black microtiter plate with a clear bottom. To initiate the GK reaction, magnesium-ATP (3 mM final concentration) was added to GK in buffer (final buffer conditions of 25 mM HEPES buffer, pH 7.1, containing 1 mM dithiothreitol and 5% DMSO). The total reaction volume was 20 μL. The reaction was allowed to proceed for ten minutes and was then quenched with 5 μL EDTA; 45 mM final). The components of the detection reaction, ThioNAD and G6PDH (glucose-6-phosphate dehydrogenase) (final concentrations of 650 μM and 3.33 Units, respectively), were then added together in a volume of 25 μL, (to give a total volume of 50 μL). Absorbance measurements were made at 405 nm on a SPECTRAMAX® Plus 384 absorbance plate reader (Molecular Devices). Absorbance was read, background glucose-6-phosphate levels were subtracted, after which activation was calculated as a percentage of control activity. Control activity was determined using GK in the presence of vehicle (DMSO), with background glucose-6-phosphate subtracted. Background glucose-6-phosphate was determined by pre-quenching GK with EDTA prior to reaction initiation with ATP. […]

A further data set has as its target CYP450 2C9 (Homo sapiens, UniProt P11712). Briefly: CYP450 2C9 inhibition. In kind it is in vitro ADME.
In a further data set the target is CYP450 2D6 (Homo sapiens, UniProt P10635). Briefly: CYP450 2D6 inhibition. The data set is classed as in vitro ADME.
In the next data set the target is T2, CYP450 2C8 (Homo sapiens, UniProt P10632).
T2 sequence (P10632 1-490): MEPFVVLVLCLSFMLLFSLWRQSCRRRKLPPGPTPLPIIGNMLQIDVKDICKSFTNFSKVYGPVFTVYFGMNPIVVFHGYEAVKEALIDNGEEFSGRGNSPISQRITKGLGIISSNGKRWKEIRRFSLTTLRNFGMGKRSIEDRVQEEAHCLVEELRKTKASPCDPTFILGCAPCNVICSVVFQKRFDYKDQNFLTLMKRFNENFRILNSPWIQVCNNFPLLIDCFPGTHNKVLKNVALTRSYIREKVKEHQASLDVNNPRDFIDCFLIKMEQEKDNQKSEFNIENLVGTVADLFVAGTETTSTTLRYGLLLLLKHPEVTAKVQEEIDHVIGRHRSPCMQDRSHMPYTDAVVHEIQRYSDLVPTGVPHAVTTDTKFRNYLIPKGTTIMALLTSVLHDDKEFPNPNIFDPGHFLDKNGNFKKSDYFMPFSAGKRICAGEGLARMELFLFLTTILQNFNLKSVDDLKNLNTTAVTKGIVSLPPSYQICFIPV
Briefly: CYP450 2C8 inhibition. The data set is classed as in vitro ADME.

A further data set deals with CYP450 2C19 (Homo sapiens, UniProt P33261). Briefly: CYP450 2C19 inhibition. In kind it is in vitro ADME.
A short description of data set [1]: Metabolic stability, mouse. The data set is classed as in vitro ADME.
The nature of data set [2]: Metabolic stability in human liver microsomes. The data set is classed as in vitro ADME.
Data set [3] deals with male DIO (diet-induced obese) C57BL/6J mice. Nature of the data set: Oral glucose tolerance test (OGTT) in DIO mice. In kind it is in vivo, mouse. On the procedure: Oral glucose tolerance tests were carried out on male DIO (diet-induced obese) C57BL/6J mice fed a high fat diet (60% kcal from fat) for 26 weeks prior to experimentation. Mice were fasted overnight before use for experiments. A test compound or vehicle (either: 1) 40% PEG 400+10% Cremophore+50% water or 2) 10% dimethyl acetamide+10% ethanol+10% Cremophore+70% water) was given orally 60 min before oral administration of a glucose solution at a dose of 2 g/kg body weight (oral glucose tolerance test; OGTT). Blood glucose levels were measured from tail-bled samples taken at different time points before and after administration of glucose (time course of 2 hours). A time curve of the blood glucose was generated and the change from baseline area-under-the curve (ΔAUC) from 0-120 min was calculated (the time glucose administration being time zero).

For another data set, the target named is CYP450 3A4 (Homo sapiens, UniProt P08684). Nature of the data set: CYP450 3A4 inhibition. The data set is classed as in vitro ADME.
Another data set is described as follows: Aqueous solubility. The data set is classed as physicochemical. Particulars: aqueous medium (not further specified).
The target in a further data set is T3, Mouse Glucokinase (Mus musculus, UniProt P52792).
T3 sequence (P52792 1-465): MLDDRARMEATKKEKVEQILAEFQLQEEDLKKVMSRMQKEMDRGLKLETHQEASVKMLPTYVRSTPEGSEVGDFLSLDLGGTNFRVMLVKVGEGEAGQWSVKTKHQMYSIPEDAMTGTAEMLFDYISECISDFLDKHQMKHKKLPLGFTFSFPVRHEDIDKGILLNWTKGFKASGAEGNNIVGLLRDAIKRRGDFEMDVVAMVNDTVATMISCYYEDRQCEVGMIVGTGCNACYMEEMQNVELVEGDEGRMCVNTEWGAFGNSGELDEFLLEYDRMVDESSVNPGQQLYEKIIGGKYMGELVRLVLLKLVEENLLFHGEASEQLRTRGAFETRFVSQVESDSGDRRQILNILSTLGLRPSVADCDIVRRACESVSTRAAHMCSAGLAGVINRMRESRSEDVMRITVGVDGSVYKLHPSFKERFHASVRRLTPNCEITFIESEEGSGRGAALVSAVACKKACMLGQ
Briefly: Glucokinase activation, mouse GK. In kind it is biochemical.

The nature of data set [4]: Pharmacokinetic study in mice (plasma and liver). The data set is classed as in vivo. Particulars: male, C57BL/6J, mouse, C57/B16J mice, 10 mg/kg oral. As to the method:
Pharmacokinetic (PK) screening studies were carried out by methods known to one of ordinary skill in the art. For example, study compounds were administered orally to male C57 Black6j (C57B16J) mice (N=3 per time point) at 10 mg/kg as solutions in a PEG400/Cremphor EL/water (40/10/50) vehicle. The mice were fasted overnight prior to the PK study. Blood samples were taken at 0.5, 1, 2, and 4 hr post dose by cardiac bleeding. Blood samples (˜0.2 mL) were added with K2EDTA and centrifuged at 4° C. (1500-2000×g) to obtain plasma. Liver samples (N=3) were collected at 1 hr post dose. The liver tissues were homogenized with 3 volumes of water to form uniform homogenates. Both plasma and liver samples were stored at −20° C. before they were analyzed by LC/MS/MS. The plasma AUC were calculated using linear and log trapezoidal summations. The liver-to-plasma (L/P) ratio was calculated by dividing the total concentration in liver with plasma concentrations for respective mice. The average of L/P ratios from 3 mice was reported together with the standard deviation.

The next data set addresses T4, CYP450 1A2 (Homo sapiens, UniProt P05177).
T4 sequence (P05177 1-516): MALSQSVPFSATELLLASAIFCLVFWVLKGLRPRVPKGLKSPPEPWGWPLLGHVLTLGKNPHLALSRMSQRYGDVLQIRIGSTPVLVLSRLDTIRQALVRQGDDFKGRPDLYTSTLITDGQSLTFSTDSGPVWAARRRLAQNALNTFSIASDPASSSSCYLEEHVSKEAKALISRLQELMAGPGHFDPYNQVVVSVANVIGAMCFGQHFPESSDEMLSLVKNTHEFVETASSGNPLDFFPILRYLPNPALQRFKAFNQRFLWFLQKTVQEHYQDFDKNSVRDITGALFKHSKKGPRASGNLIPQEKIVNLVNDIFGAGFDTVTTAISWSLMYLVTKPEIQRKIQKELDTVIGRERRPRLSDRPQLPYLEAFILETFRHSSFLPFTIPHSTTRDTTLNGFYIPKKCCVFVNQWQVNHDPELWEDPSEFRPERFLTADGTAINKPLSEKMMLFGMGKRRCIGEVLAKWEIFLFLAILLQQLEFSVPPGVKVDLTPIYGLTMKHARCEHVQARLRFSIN
Nature of the data set: CYP450 1A2 inhibition. In kind it is in vitro ADME.

≈ marks a conversion by molar mass, not a printed value. Like-named read-outs stand apart in the source and are kept apart here.

CYP450 2C9, sequence (P11712 whole entry): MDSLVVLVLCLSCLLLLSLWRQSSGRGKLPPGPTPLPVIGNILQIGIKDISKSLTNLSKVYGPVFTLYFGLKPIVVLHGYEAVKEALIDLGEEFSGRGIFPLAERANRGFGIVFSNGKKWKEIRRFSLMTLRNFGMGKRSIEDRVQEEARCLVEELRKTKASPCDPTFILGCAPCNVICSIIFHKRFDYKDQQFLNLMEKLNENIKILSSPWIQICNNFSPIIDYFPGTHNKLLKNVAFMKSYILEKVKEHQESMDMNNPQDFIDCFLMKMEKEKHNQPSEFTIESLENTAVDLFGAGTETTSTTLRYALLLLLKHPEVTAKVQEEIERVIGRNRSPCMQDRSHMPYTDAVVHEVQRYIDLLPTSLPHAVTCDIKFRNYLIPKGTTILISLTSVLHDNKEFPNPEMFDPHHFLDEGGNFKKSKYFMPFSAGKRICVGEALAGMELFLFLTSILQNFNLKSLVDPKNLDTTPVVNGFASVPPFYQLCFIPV
CYP450 2D6, sequence (P10635 whole entry): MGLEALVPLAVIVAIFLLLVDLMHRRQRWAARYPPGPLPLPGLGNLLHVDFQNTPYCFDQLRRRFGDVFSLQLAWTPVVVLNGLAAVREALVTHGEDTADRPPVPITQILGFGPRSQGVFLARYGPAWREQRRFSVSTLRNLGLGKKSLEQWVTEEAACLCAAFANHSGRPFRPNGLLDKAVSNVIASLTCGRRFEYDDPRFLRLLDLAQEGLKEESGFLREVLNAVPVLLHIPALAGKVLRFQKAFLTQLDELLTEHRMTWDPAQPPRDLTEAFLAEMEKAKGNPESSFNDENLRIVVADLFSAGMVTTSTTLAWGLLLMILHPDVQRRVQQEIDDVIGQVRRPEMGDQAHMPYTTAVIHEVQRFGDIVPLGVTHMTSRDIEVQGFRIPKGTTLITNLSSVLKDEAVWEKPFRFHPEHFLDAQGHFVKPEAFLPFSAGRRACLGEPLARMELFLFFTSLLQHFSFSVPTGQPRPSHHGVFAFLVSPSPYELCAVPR
CYP450 3A4, sequence (P08684 whole entry): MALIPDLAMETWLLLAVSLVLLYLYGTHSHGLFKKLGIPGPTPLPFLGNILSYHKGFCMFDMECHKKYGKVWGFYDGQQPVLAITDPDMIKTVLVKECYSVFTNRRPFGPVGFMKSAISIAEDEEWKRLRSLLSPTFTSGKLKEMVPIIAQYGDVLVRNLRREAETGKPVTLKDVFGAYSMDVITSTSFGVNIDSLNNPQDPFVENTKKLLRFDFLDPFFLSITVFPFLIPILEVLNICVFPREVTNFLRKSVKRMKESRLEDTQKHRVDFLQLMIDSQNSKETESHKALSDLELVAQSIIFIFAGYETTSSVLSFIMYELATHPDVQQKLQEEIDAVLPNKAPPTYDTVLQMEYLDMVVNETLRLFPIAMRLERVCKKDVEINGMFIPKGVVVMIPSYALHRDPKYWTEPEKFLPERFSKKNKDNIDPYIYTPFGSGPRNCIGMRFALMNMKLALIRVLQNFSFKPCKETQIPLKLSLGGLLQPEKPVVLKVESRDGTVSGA
CYP450 2C19, sequence (P33261 whole entry): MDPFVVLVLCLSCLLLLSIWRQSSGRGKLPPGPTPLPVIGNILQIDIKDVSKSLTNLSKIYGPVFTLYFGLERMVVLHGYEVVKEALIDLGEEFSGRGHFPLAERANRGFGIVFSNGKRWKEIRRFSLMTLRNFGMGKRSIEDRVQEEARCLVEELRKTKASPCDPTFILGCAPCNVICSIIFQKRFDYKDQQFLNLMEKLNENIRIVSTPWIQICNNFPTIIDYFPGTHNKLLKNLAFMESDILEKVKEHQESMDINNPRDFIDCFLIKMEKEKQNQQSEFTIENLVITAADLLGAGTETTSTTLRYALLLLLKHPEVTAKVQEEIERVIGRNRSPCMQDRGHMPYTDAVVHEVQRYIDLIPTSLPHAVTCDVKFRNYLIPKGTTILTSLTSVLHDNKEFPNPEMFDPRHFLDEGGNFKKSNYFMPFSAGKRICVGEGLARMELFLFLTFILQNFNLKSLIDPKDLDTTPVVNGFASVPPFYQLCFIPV

The term EC50 denotes the concentration at which the effect is half-maximal. Higher therefore signals a less potent agent. Usually IC50 stands for the concentration that inhibits the measured activity by half. Read a low IC50 as higher potency. One may read the solubility as how much of the substance goes into solution per volume. A low value points to a poorly soluble substance. For orientation: AUC(0-t) means the area under the concentration-time curve up to a stated or last time point. A low value points to less exposure. Consider `CC[C@@H](COC)Oc1cc(Oc2ccc(S(C)(=O)=O)nc2)cc(C(=O)Nc2nc(CP3(=O)OCCCO3)cs2)c1` [Example 1, 3-(((1S)-1-(methoxymethyl)propyl)oxy)-5-((6-(methylsulfonyl)-3-pyridinyl)oxy)-N-(4-((2-oxido-1,3,2-dioxaphosphinan-2-yl)methyl)-1,3-thiazol-2-yl)benzamide], for which the half-maximal effective concentration (EC50) at Human Glucokinase was determined as 0.036 µM; on Mouse Glucokinase, 0.037 µM. The IC50 on Human Glucokinase was 0.095 µM; at CYP450 2C9 it was 26.8 µM; on CYP450 2D6, > 40 µM; on CYP450 2C8, 24.6 µM; on CYP450 2C19, > 40 µM; on CYP450 3A4, > 40 µM. Besides, the concentration for half-maximal inhibition (IC50) on CYP450 1A2 is > 40 µM. In addition, the Emax at Human Glucokinase (read-out: Human Glucokinase Ymax (maximal activation)) and on Mouse Glucokinase (read-out: Mouse Glucokinase Ymax (maximal activation)) was 194% each time. Besides, the “Metabolic Stability Mouse (0.5 μM)” value in data set [1] was 92%. Moreover, in [2], the “Metabolic Stability Human Liver Microsomes (0.5 μM)” value is 80%. Also, the “reduction in glucose AUC (after an oral glucose tolerance test in diet-induced obese mice)” value in data set [3] (10 μmol/kg dose) turned out to be 47%. Besides, the “Glucose lowering (AUC) (120 min)” value in data set [3] (OGTT, DIO mice, oral dose 10 μmol/kg, AUC 0-120 min) is listed as −47%. This molecule gave a solubility in “Aqueous solubility” of 74 µg/mL (≈ 121 µM). Further, the Kp at 1 h in data set [4] (liver/plasma, po, 10 mg/kg, read-out: Liver/Plasma ratio) was ~39. This molecule displayed an exposure AUC(0-t) in [4] (plasma, 0-4 hr) of 1.53 µM·h. The concentration at 0.5 h in [4] (plasma, 0.5 hr post dose) stood at 604 ± 234 nM. Also, the concentration at 1 h in data set [4] (plasma, 1 hr post dose, read-out: Plasma (1 hr)) stood at 631 ± 286 nM; in [4] (liver concentration 1 hr post dose, read-out: Liver (1 hr)), 21600 ± 1360 nM. The molecule also returned a concentration at 2 h in [4] (plasma, 2 hr post dose) of 398 ± 193 nM. The molecule also returned a concentration at 4 h in [4] (plasma, 4 hr post dose) of 193 ± 133 nM.
